Data as given in US11427594B2, “Non brain penetrant A2A inhibitors and methods for use in the treatment of cancers” (iTeos Belgium SA, priority 2018, dated 2022).
Read-outs that look alike come from different tables or passages of the source.

How the values were obtained:
[1] = target: T1, A2A receptor (Homo sapiens, UniProt P29274); assay: Inhibition of cAMP production in HEK cells (LANCE Ultra cAMP, TR-FRET); assay type: cell-based; settings: HEK-293 cells with stable transfection of A2A receptor
T1 construct: host or cells: HEK-293
Method: When the A2A receptor is activated, is induces the production of cAMP. The present assay thus aims at showing that cAMP production is inhibited in HEK cells in response to their exposure to the compounds of the invention. HEK-293 cells with a stable transfection of A2A receptor were bought from PerkinElmer® (#ES-011-C). Cells were cultured in EMEM medium (Lonza, #BE12-611F) supplemented with 10% FBS (Lonza, #DE14-801F) and 200 μg/mL of G418 (Tocris, #4131) at 37° C. and 5% CO2. Fresh media without the selection marker was added on the day immediately before the experiment to stop selection pressure. cAMP inhibition and antagonist IC50 determination were accessed using the LANCE® Ultra cAMP Kit from PerkinElmer® (#TRF0262) on white half area 96 well plates (PerkinElmer®, #6005560). The assays were conducted in two different stimulation buffers: • a) normal with 1×HBSS (Gibco®, #141750-95), 5 mM HEPES (Lonza, #BE17-737E), 0.1% BSA and 25 μM Rolipram and • b) HSA with 1×HBSS (Gibco®, #141750-95), 5 mM HEPES (Lonza, #BE17-737E), 2% Human Serum Albumin (Sigma-Aldrich®—A1653), 30 μM of EHNA (Tocris—#1261) and 100 μM Rolipram. Stimulation buffer b) mimics the human situation by increasing the amount of albumin present in the assay. Compounds of the present invention were diluted 100× in either of the buffers depending on the assay performed. A total of 1000 cells per well were pre-incubated for 10 minutes with the compounds of the present invention before adding the corresponded EC80 of A2A agonist (3 nM of NECA in normal buffer) or 5 μM of Adenosine (in HAS buffer) for a total reaction time of 30 minutes. The total volume of the reaction was 20 μl (10 μl of cells, 5 μl of antagonist and 5 μl of agonist). The reaction was finalized by adding 10 μl of 4×EU-cAMP tracer working solution and 10 μl of 4× ULight-anti-cAMP working solution. The TR-FRET signal was measured after 1 hour using a Spectramax Paradigm (Molecular Devices).

[2] = Permeability and efflux in Caco-2 cells; assay type: in vitro ADME; settings: human, Caco-2 monolayer, bidirectional transport, pH 7.4
Method: The transport buffer (TB, pH 7.4) used in the study is Hank's Buffered Saline Solution (HBSS, Gibco, Cat #14025-076) with 10 mM HEPES at pH 7.4. Fetal bovine serum (FBS) (Corning, Cat #Corning-35-076-CV, or other vendors), Minimum Essential Media (MEM) (Gibco, Cat #41500-034) as well as its supplements are purchased from Invitrogen (Carlsbad, Calif., USA). Caco-2 cell line (Cat #HTB-37) is purchased from the ATCC (Rockville, Md., USA). The organic solvents used in the study are purchased from Sigma Aldrich (St. Louis, Mo., USA). For reference compounds (fenoterol, propranolol and digoxin) and test compounds, 0.4 mM intermediate solutions are prepared by diluting 10 mM or other appropriate concentrations of DMSO stock solutions with DMSO. 2 μM dosing solutions for reference compounds and test compounds are prepared by spiking the appropriate volume of intermediate solution to TB with and without 1 μM Zosuquidar. The final concentration of DMSO is no more than 1% (v/v). Caco-2 cells are grown in MEM supplemented with 2 mM L-glutamine, 10% FBS, 100 U/mL penicillin-G and 100 μg/mL streptomycin. The cells are incubated at 37° C., 5% CO2 and relatively saturated humidity. After reaching 80-90% confluency, the cells are gently detached with 0.05% trypsin-EDTA solution. Cells at passage 30-50 are seeded on the 96-well BD insert system (Cat #359274) at the density of 1×10^5 cells/cm2 and cultured for 21-28 days with medium changed every 4-5 days. TB and dosing solutions were pre-warmed to 37° C. before transport assay. The cell monolayer was washed twice with HBSS containing 10 mM HEPES. For A-B (apical to basolateral) directional transport assay, 75 μL dosing solution is added to the apical well. Fill each basolateral well with 250 μL TB. For B-A (basolateral to apical) directional transport assay, 250 μL of dosing solution is added to the basolateral well after filling each apical well with 75 μL TB. Test compound(s) and digoxin are tested at 2 μM in the presence or absence of 1 μM zosuquidar bidirectionally in duplicate. Atenolol and propranolol are tested at 2 μM in the absence of zosuquidar in A to B direction in duplicate. The plates are incubated for 120 minutes at 37° C. with 5% C02 and saturated humidity. The time zero samples are generated by mixing 50 μL initial dosing solution of test compound or reference compound with 100 μL TB and 250 μL quench solution (acetonitrile (ACN) or other appropriate solvent with internal standard(s), based on the bioanalytical method development). At 120 minutes, 150 μL of solution is collected from each A-B receiver well followed by addition of 250 μL quench solution to get A-B receiver sample. And for other samples (A-B donor, B-A donor and receiver), 50 μL of solution is collected from each corresponding well followed by addition of 250 μL quench solution and 100 μL TB. All samples are vortex-mixed and centrifuged at 3220 g for 20 minutes. Subsequently, supernatant is diluted with ultra pure water for LC-MS/MS analysis. The concentrations of test compound in all samples are determined by LC-MS/MS and expressed as peak area ratio of analyte to internal standard. The concentration of samples is expressed using the peak area ratio of Analyte to Internal Standard (Analyte/IS). The apparent permeability coefficient (Papp) is calculated using the following equation: Papp=VR/(Area*Time)*(CR/C0) wherein VR is the solution volume in the receiver chamber (0.075 mL on the apical side, 0.25 mL on the basolateral side); Area is the surface area for the transport, i.e. 0.0804 cm2 for the area of the monolayer; Time is incubation time, expressed in seconds, 2 h=2×3600 s; C0 is the initial concentration in the donor chamber; CR is the final concentrations in receiver chamber. The efflux ratio is calculated using the following equation: Efflux ratio=[…]) where Papp (A-B) and Papp (B-A) are the Papp values of compound in Apical to Basolateral and Basolateral to Apical directional transport, respectively.

[3] = HSA stimulation buffer, 5 μM Adenosine as agonist, 2.0% HSA, read-out: IC50 (nM) (5 μM Adenosine as agonist, 2.0% HSA)
[4] = normal stimulation buffer, 3 nM NECA as agonist, 0.1% BSA, read-out: IC50 (nM) (3 nM NECA as agonist, 0.1% BSA)

T1 sequence (P29274 whole entry): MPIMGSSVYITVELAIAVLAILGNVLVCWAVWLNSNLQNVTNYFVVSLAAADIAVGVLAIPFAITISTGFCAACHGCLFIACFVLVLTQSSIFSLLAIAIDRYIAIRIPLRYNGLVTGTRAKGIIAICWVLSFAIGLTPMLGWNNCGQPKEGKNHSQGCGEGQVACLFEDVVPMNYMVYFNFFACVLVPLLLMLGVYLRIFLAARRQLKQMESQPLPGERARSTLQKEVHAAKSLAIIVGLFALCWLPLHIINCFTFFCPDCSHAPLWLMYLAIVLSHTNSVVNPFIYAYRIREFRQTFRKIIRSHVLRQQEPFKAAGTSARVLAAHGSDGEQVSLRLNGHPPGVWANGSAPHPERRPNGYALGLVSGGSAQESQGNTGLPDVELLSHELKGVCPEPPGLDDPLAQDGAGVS

Row | SMILES | IC50 [1, 3] [nM] | IC50 [1, 4] [nM] | efflux ratio at 120 min, 2 μM [2]
1 | C[S@@+]([O-])CCOc1cc(N2CCN(CCNc3nc(N)n4nc(-c5ccco5)nc4n3)CC2)c(F)cc1F [Compound 11, (R)—N5-(2-(4-(2,4-difluoro-5-(2-(methylsulfinyl)ethoxy)phenyl)piperazin-1-yl)ethyl)-2-(furan-2-yl)-[1,2,4]triazolo[1,5-a][1,3,5]triazine-5,7-diamine] | 41 | 0.4 | > 600
2 | C[S@@+]([O-])CCOc1cc(N2CCN(CCn3ncc4c3nc(N)n3nc(-c5ccco5)nc43)CC2)c(F)cc1F [Compound 13, (R)-7-(2-(4-(2,4-difluoro-5-(2-(methylsulfinyl)ethoxy)phenyl)piperazin-1-yl)ethyl)-2-(furan-2-yl)-7H-pyrazolo[4,3-e][1,2,4]triazolo[1,5-c]pyrimidin-5-amine] | 131 | 0.5 | > 100
3 | Cn1c(=O)n(CCN2CCN(c3cc(OC4CCNC4=O)c(F)cc3F)CC2)c2nc(N)n3nc(-c4ccco4)nc3c21 (stereo not drawn) [Compound 21, 5-amino-3-(2-(4-(2,4-difluoro-5-((2-oxopyrrolidin-3-yl)oxy)phenyl)piperazin-1-yl)ethyl)-8-(furan-2-yl)-1-methyl-1H-[1,2,4]triazolo[5,1-i]purin-2(3H)-one] | 178 | 0.4 | > 150
4 | Cn1c(=O)n(CCN2CCN(c3ccc(OCC[S+](C)[O-])cc3F)CC2)c2nc(N)n3nc(-c4ccco4)nc3c21 (stereo not drawn) [Compound 20, 5-amino-3-(2-(4-(2-fluoro-4-(2-(methylsulfinyl)ethoxy)phenyl)piperazin-1-yl)ethyl)-8-(furan-2-yl)-1-methyl-1H-[1,2,4]triazolo[5,1-i]purin-2(3H)-one] | 72 | 0.4 | > 300
5 | CN(CCN1CCN(c2cc(OCC[S@@+](C)[O-])c(F)cc2F)CC1)c1nc(N)n2nc(-c3ccco3)nc2n1 [Compound 2, (R)—N5-(2-(4-(2,4-difluoro-5-(2-(methylsulfinyl)ethoxy)phenyl)piperazin-1-yl)ethyl)-2-(furan-2-yl)-N5-methyl-[1,2,4]triazolo[1,5-a][1,3,5]triazine-5,7-diamine] | 28 | 0.6 | –
6 | C[S@+]([O-])CCOc1cc(N2CCN(CCNc3nc(N)n4nc(-c5ccco5)nc4n3)CC2)c(F)cc1F [Compound 10, (S)—N5-(2-(4-(2,4-difluoro-5-(2-(methylsulfinyl)ethoxy)phenyl)piperazin-1-yl)ethyl)-2-(furan-2-yl)-[1,2,4]triazolo[1,5-a][1,3,5]triazine-5,7-diamine] | 25 | 0.2 | > 900
7 | C[S@+]([O-])c1cc(N2CCN(CCNc3nc(N)n4nc(-c5ccco5)nc4n3)CC2)c(F)cc1F [Compound 17, (S)—N5-(2-(4-(2,4-difluoro-5-(methylsulfinyl)phenyl)piperazin-1-yl)ethyl)-2-(furan-2-yl)-[1,2,4]triazolo[1,5-a][1,3,5]triazine-5,7-diamine] | 201 | 1.8 | –
8 | Cn1c(=O)n(CCN2CCN(c3cc(OCC[S@+](C)[O-])c(F)cc3F)CC2)c2nc(N)n3nc(-c4ccco4)nc3c21 [Compound 7, (S)-5-amino-3-(2-(4-(2,4-difluoro-5-(2-(methylsulfinyl)ethoxy)phenyl)piperazin-1-yl)ethyl)-8-(furan-2-yl)-1-methyl-1H-[1,2,4]triazolo[5,1-i]purin-2-one] | 64 | 0.3 | > 500
9 | CN(CCN1CCN(c2cc(OCCS(C)(=O)=O)c(F)cc2F)CC1)c1nc(N)n2nc(-c3ccco3)nc2n1 [Compound 5, N5-(2-(4-(2,4-difluoro-5-(2-(methylsulfonyl)ethoxy)phenyl)piperazin-1-yl)ethyl)-2-(furan-2-yl)-N5-methyl-[1,2,4]triazolo[1,5-a][1,3,5]triazine-5,7-diamine] | 41 | 0.6 | > 340
10 | Nc1nc(NCCN2CCN(c3cc(N4CC[S+]([O-])CC4)c(F)cc3F)CC2)nc2nc(-c3ccco3)nn12 [Compound 15, 4-(5-(4-(2-((7-amino-2-(furan-2-yl)-[1,2,4]triazolo[1,5-a][1,3,5]triazin-5-yl)amino)ethyl)piperazin-1-yl)-2,4-difluorophenyl)thiomorpholine 1-oxide] | 81 | 1.7 | –
11 | C[S@@+]([O-])c1cc(N2CCN(CCNc3nc(N)n4nc(-c5ccco5)nc4n3)CC2)c(F)cc1F [Compound 16, (R)—N5-(2-(4-(2,4-difluoro-5-(methylsulfinyl)phenyl)piperazin-1-yl)ethyl)-2-(furan-2-yl)-[1,2,4]triazolo[1,5-a][1,3,5]triazine-5,7-diamine] | 73 | 7.4 | –
12 | CN(CCN1CCN(c2cc(OCC[S@+](C)[O-])c(F)cc2F)CC1)c1nc(N)n2nc(-c3ccco3)nc2n1 [Compound 1, (S)—N5-(2-(4-(2,4-difluoro-5-(2-(methylsulfinyl)ethoxy)phenyl)piperazin-1-yl)ethyl)-2-(furan-2-yl)-N5-methyl-[1,2,4]triazolo[1,5-a][1,3,5]triazine-5,7-diamine] | 33 | 0.4 | –
13 | CS(=O)(=O)CCOc1cc(N2CCN(CCNc3nc(N)n4nc(-c5ccco5)nc4n3)CC2)c(F)cc1F [Compound 6, N5-(2-(4-(2,4-difluoro-5-(2-(methylsulfonyl)ethoxy)phenyl)piperazin-1-yl)ethyl)-2-(furan-2-yl)-[1,2,4]triazolo[1,5-a][1,3,5]triazine-5,7-diamine] | 63 | 0.9 | –
